# PubChem BioAssay AID1918931 (Molecular Pharmacology Branch, DTP, NCI, 2023)
# pIC50: −log10 of the molar value.
# System: 138582-337-R-J1-PDC complex spheroid viability
# Assay: Anticancer human tumor 138582-337-R-J1-PDC patient-derived Merkel cell tumor cell line growth inhibition
# Details: for pIC50: curve of first compound; for viability, T/C: stronger effect = lower value
# Method in brief: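 Multicellular complex spheroids of tumor cells with human endothelial cells (HUVEC) and mesenchymal stem cells; the LSD1 inhibitor iadademstat was combined with standard-of-care or investigational agents. Top concentration at or near clinical Cmax, half-log dilutions; final DMSO ≤0.25%.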
# 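Further: spheroids exposed to agents for 7 days.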
# 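Wherever viability, T/C is given: 100% = DMSO vehicle control viability.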
structure (smiles),measurement,setting,value
CC1COCCN1c1cc(C2(S(C)(=N)=O)CC2)nc(-c2ccnc3[nH]ccc23)n1 (stereo not given) + NC1CC1c1ccc(-c2cccc(O)c2)cc1,pIC50,second compound 0.1 µM,5.34
same,pIC50,second compound 0.316 µM,5.52
same,pIC50,second compound 1 µM,5.30
same,pIC50,second compound 3.16 µM,5.41
same,pIC50,second compound 10 µM,5.37
same,"viability, T/C","second compound 0.1 µM, first compound 0.0316 µM",74.1%
same,"viability, T/C","second compound 0.1 µM, first compound 0.1 µM",78%
same,"viability, T/C","second compound 0.1 µM, first compound 0.316 µM",70.3%
same,"viability, T/C","second compound 0.1 µM, first compound 1 µM",68.6%
same,"viability, T/C","second compound 0.1 µM, first compound 3.16 µM",54.2%
same,"viability, T/C","second compound 0.1 µM, first compound 10 µM",37.6%
same,"viability, T/C","second compound 0.316 µM, first compound 0.0316 µM",64.6%
same,"viability, T/C","second compound 0.316 µM, first compound 0.1 µM",79%
same,"viability, T/C","second compound 0.316 µM, first compound 0.316 µM",75.8%
same,"viability, T/C","second compound 0.316 µM, first compound 1 µM",68%
same,"viability, T/C","second compound 0.316 µM, first compound 3.16 µM",49.4%
same,"viability, T/C","second compound 0.316 µM, first compound 10 µM",35.9%
same,"viability, T/C","second compound 1 µM, first compound 0.0316 µM",72%
same,"viability, T/C","second compound 1 µM, first compound 0.1 µM",66.1%
same,"viability, T/C","second compound 1 µM, first compound 0.316 µM",62.6%
same,"viability, T/C","second compound 1 µM, first compound 1 µM",69.4%
same,"viability, T/C","second compound 1 µM, first compound 3.16 µM",54%
same,"viability, T/C","second compound 1 µM, first compound 10 µM",40.8%
same,"viability, T/C","second compound 3.16 µM, first compound 0.0316 µM",81.2%
same,"viability, T/C","second compound 3.16 µM, first compound 0.1 µM",76.3%
same,"viability, T/C","second compound 3.16 µM, first compound 0.316 µM",78.8%
same,"viability, T/C","second compound 3.16 µM, first compound 1 µM",66.2%
same,"viability, T/C","second compound 3.16 µM, first compound 3.16 µM",54%
same,"viability, T/C","second compound 3.16 µM, first compound 10 µM",32.6%
same,"viability, T/C","second compound 10 µM, first compound 0.0316 µM",89.9%
same,"viability, T/C","second compound 10 µM, first compound 0.1 µM",87.6%
same,"viability, T/C","second compound 10 µM, first compound 0.316 µM",95.5%
same,"viability, T/C","second compound 10 µM, first compound 1 µM",80.8%
same,"viability, T/C","second compound 10 µM, first compound 3.16 µM",53.3%
same,"viability, T/C","second compound 10 µM, first compound 10 µM",41.6%
COc1cc(C2c3cc4c(cc3C(OC3OC5COC(C)OC5C(O)C3O)C3COC(=O)C23)OCO4)cc(OC)c1O (stereo not given) + NC1CCC(NC2CC2c2ccccc2)CC1,pIC50,second compound 0.1 µM,< 5.52
same,pIC50,second compound 0.316 µM,< 5.52
same,pIC50,second compound 1 µM,< 5.52
same,pIC50,second compound 3.16 µM,< 5.52
same,pIC50,second compound 10 µM,< 5.52
same,"viability, T/C","second compound 0.1 µM, first compound 0.00949 µM",105%
same,"viability, T/C","second compound 0.1 µM, first compound 0.03 µM",89.8%
same,"viability, T/C","second compound 0.1 µM, first compound 0.0949 µM",67.3%
same,"viability, T/C","second compound 0.1 µM, first compound 0.3 µM",69.4%
same,"viability, T/C","second compound 0.1 µM, first compound 0.949 µM",70.3%
same,"viability, T/C","second compound 0.1 µM, first compound 3 µM",66.4%
same,"viability, T/C","second compound 0.316 µM, first compound 0.00949 µM",102%
same,"viability, T/C","second compound 0.316 µM, first compound 0.03 µM",76.3%
same,"viability, T/C","second compound 0.316 µM, first compound 0.0949 µM",85.4%
same,"viability, T/C","second compound 0.316 µM, first compound 0.3 µM",85.8%
same,"viability, T/C","second compound 0.316 µM, first compound 0.949 µM",74%
same,"viability, T/C","second compound 0.316 µM, first compound 3 µM",60.7%
same,"viability, T/C","second compound 1 µM, first compound 0.00949 µM",90.8%
same,"viability, T/C","second compound 1 µM, first compound 0.03 µM",95.3%
same,"viability, T/C","second compound 1 µM, first compound 0.0949 µM",76%
same,"viability, T/C","second compound 1 µM, first compound 0.3 µM",68.7%
same,"viability, T/C","second compound 1 µM, first compound 0.949 µM",94.1%
same,"viability, T/C","second compound 1 µM, first compound 3 µM",85.2%
same,"viability, T/C","second compound 3.16 µM, first compound 0.00949 µM",82.6%
same,"viability, T/C","second compound 3.16 µM, first compound 0.03 µM",87.3%
same,"viability, T/C","second compound 3.16 µM, first compound 0.0949 µM",85.1%
same,"viability, T/C","second compound 3.16 µM, first compound 0.3 µM",71.6%
same,"viability, T/C","second compound 3.16 µM, first compound 0.949 µM",69.1%
same,"viability, T/C","second compound 3.16 µM, first compound 3 µM",95.3%
same,"viability, T/C","second compound 10 µM, first compound 0.00949 µM",73.8%
same,"viability, T/C","second compound 10 µM, first compound 0.03 µM",81.6%
same,"viability, T/C","second compound 10 µM, first compound 0.0949 µM",75.3%
same,"viability, T/C","second compound 10 µM, first compound 0.3 µM",82%
same,"viability, T/C","second compound 10 µM, first compound 0.949 µM",65.5%
same,"viability, T/C","second compound 10 µM, first compound 3 µM",56.7%
